pIC50: −log10 of the molar value.
Molecular target: T1, dopamine, D1 receptors (Rattus norvegicus, UniProt P18901)
T1 construct: from tissue; host or cells: rat striatum (inferred from the cited Billard et al. 1984)
Assay: 3H-SCH23390 binding test (Billard et al.)
Settings: 3H-SCH23390 radioligand; read-out: IC50 value (the concentration of the compound required to reduce the binding of 3H-SCH23390 by 50%)
Excerpt: As mentioned above, the compounds of formula (I), with the exception of those in which both R^1 and R^2 are hydrogen and those in which R^3 in optionally substituted phenylsulphonyl, have useful central nervous system activity with low toxicity. […] The compounds of formula (I) and pharmaceutically-acceptable acid addition salts thereof, are potent centrally acting compounds which are useful in the treatment of depression, mild anxiety states, certain kinds of psychotic conditions such as schizophrenia and acute mania and parkinsonism.

T1 sequence (P18901 whole entry): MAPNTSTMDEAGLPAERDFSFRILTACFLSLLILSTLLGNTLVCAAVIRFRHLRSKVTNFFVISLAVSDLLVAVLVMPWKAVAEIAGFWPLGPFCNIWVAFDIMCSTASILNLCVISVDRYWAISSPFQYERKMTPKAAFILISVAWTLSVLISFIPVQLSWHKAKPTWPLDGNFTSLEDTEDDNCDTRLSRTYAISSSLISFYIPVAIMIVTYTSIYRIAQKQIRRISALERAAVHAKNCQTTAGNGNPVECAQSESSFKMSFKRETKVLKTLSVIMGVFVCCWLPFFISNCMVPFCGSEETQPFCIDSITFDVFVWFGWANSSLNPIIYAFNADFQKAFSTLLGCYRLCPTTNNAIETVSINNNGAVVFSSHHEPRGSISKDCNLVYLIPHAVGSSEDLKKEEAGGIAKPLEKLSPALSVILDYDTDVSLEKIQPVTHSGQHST

Structure (SMILES) | pIC50
CN1CCc2c([nH]c(Br)c2Br)C(c2ccccc2)C1 (racemic) [Example 10, 2,3-Dibromo-1,4,5,6,7,8-hexahydro-6-methyl-8-phenylpyrrolo[2,3-d]azepine] | 5.96
CN1CCc2c(Br)c[nH]c2C(c2ccccc2)C1 (racemic) [Example 12, 3-Bromo-1,4,5,6,7,8-hexahydro-6-methyl-8-phenylpyrrolo[2,3-d]azepine] | 6.82
